Measured values published in patent publication US20100130408A1, “USE OF MODIFIED CYCLOSPORINS” (priority 2006, published 2010).

Legend:
[1] = system: HSCs; details: cited from earlier work
[2] = system: HCV; details: Watashi et al., Hepatology (2003); cited from earlier work
[3] = biological target: T1, human recombinant cyclophilin (Homo sapiens, UniProt P62937); assay: competitive ELISA, cyclophilin on coated BSA-cyclosporin A, reference cyclosporin A; details: scale: log10
[4] = biological target: T1, human recombinant cyclophilin; assay: competitive ELISA cyclophilin binding test (Binding Ratio); details: log to the base 10 of IC50 test compound / IC50 cyclosporin A
Experimental: A cyclosporin is considered as binding to cyclophilin if it binds to human recombinant cyclophilin at least one fifth as well as does cyclosporin A in the competitive ELISA test described by Quesniaux in Eur. J. Immunol. 1987 17 1359-1365. In this test, the cyclosporin to be tested is added during the incubation of cyclophilin with coated BSA-cyclosporin A and the concentration required to give a 50% inhibition of the control reaction without competitor is calculated (IC50). The results are expressed as the Binding Ratio (BR), which is the log to the base 10 of the ratio of the IC50 of the test compound and the IC50 in a simultaneous test of cyclosporin A itself.

[5] = system: Balb/c spleen cells; assay: Mixed Lymphocyte Reaction (MLR); format: cell-based, mice; details: percentage of the activity relative to Cyclosporin A
Experimental: A cyclosporin is considered to be non-immunosuppressive when it has an activity in the Mixed Lymphocyte Reaction (MLR) of no more than 5%, preferably no more than 2%, that of cyclosporin A. The Mixed Lymphocyte Reaction is described by T. Meo in “Immunological Methods”, L. Lefkovits and B. Peris, Eds., Academic Press, N.Y. pp. 227-239 (1979). Spleen cells (0.5×106) from Balb/c mice (female, 8-10 weeks) are co-incubated for 5 days with […] irradiated (2000 reds) or mitomycin C treated spleen cells from CBA mice (female, 8-10 weeks). The irradiated allogeneic cells induce a proliferative response in the Balb/c spleen cells which can be measured by labeled precursor incorporation into the DNA. […] The IC50 found for the test compound in the MLR is compared with that found for cyclosporin A in a parallel experiment. In addition, non-immunosuppressive cyclosporins lack the capacity of inhibiting CN and the downstream NF-AT pathway.

T1 sequence (P62937 whole entry): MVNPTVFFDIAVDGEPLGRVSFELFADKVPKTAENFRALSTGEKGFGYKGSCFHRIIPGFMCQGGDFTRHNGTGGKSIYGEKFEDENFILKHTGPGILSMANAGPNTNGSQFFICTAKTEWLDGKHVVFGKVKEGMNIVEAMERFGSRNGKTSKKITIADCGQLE

## C=CC[C@@H]1/C=C(\C)C[C@H](C)C[C@H](OC)[C@H]2O[C@@](O)(C(=O)C(=O)N3CCCC[C@H]3C(=O)O[C@H](/C(C)=C/[C@@H]3CC[C@@H](O)[C@H](OC)C3)[C@H](C)[C@@H](O)CC1=O)[C@H](C)C[C@@H]2OC [tacrolimus]
[1]; 12.5 nM (10 ng/ml), previously reported in Nakamuta et al
  reduction of collagen production: does not significantly reduces collagen production
[1]; previous evaluation of immunosuppressive drugs
  cell growth and collagen production in HSCs: did not have such effects
[2]
  replication of HCV in vitro: did not show this effect

## [8'-hydroxy-MeBmt]^1-Ciclosporin (peptide)
[3]
  Binding Ratio (BR): 0.35

## [8′-hydroxy-MeBmt]^1-Ciclosporin
[4]
  Binding Ratio (BR): 0.35
[5]
  IR = Immunosuppressive Ratio: 1.8%

## [Ethyl-Val]^4-Ciclosporin
[4]
  Binding Ratio (BR): 0
[5]
  IR = Immunosuppressive Ratio: < 2%

## [Ethyl-Val]^4-Ciclosporin (peptide)
[3]
  Binding Ratio (BR): 0

## [Ethyl-lle]^4-Ciclosporin
[4]
  Binding Ratio (BR): 0.1
[5]
  IR = Immunosuppressive Ratio: < 2%

## [Ethyl-lle]^4-Ciclosporin (peptide)
[3]
  Binding Ratio (BR): 0.1

## [MeAla]^6-Ciclosporin
[4]
  Binding Ratio (BR): −0.4
[5]
  IR = Immunosuppressive Ratio: 3.2%

## [MeAla]^6-Ciclosporin (peptide)
[3]
  Binding Ratio (BR): -0.4

## [MeVal]^4-Ciclosporin
[4]
  Binding Ratio (BR): 0.1
[5]
  IR = Immunosuppressive Ratio: < 1%

## [MeVal]^4-Ciclosporin (peptide)
[3]
  Binding Ratio (BR): 0.1

## [MeVal]^5-Ciclosporin
[4]
  Binding Ratio (BR): 0.4
[5]
  IR = Immunosuppressive Ratio: 5.3%

## [MeVal]^5-Ciclosporin (peptide)
[3]
  Binding Ratio (BR): 0.4

## [Melle]^4-Ciclosporin
[4]
  Binding Ratio (BR): −0.2
[5]
  IR = Immunosuppressive Ratio: < 1%

## [Melle]^4-Ciclosporin (peptide)
[3]
  Binding Ratio (BR): -0.2

## [dihydro-MeBmt]^1-[y-hydroxy-MeLeu]^4-Ciclosporin
[4]
  Binding Ratio (BR): 0.1
[5]
  IR = Immunosuppressive Ratio: < 1%

## [dihydro-MeBmt]^1-[y-hydroxy-MeLeu]^4-Ciclosporin (peptide)
[3]
  Binding Ratio (BR): 0.1

## [y-hydroxy-MeLeu]^4-Ciclosporin
[4]
  Binding Ratio (BR): 0.4
[5]
  IR = Immunosuppressive Ratio: < 1%

## [y-hydroxy-MeLeu]^4-Ciclosporin (peptide)
[3]
  Binding Ratio (BR): 0.4

## [y-hydroxy-MeLeu]^9-Ciclosporin
[4]
  Binding Ratio (BR): 0.15
[5]
  IR = Immunosuppressive Ratio: 2.9%

## [y-hydroxy-MeLeu]^9-Ciclosporin (peptide)
[3]
  Binding Ratio (BR): 0.15
